The values that follow come from patent publication EP3266784A1, “PROTEIN ARGININE N-METHYLTRANSFERASES INHIBITORS AND USES THEREOF” (PIERRE FABRE MEDICAMENT, priority 2016, dated 2018).

What all share (format): biochemical
For one test, the target named is human PRMT1 enzyme (Homo sapiens, UniProt Q99873). The experiment in a line: PRMT1 inhibition assay (radioactive [3H]SAM methyl transfer, filter binding). The following applies: compound at 100µM, 700 nM [3H]SAM, 50 nM Histone H4 full length, 20 min at 22°C; for inhibition at 100 µM: read-out: PRMT1 100µM, percent inhibition of the control enzyme activity. As for the experimental part:
(§1) The inhibitory effect of compounds on the methyltransferase activity of human PRMT was evaluated via the measurement of its capacity to transfer methyl groups in a radioactivity assay.
The test compound, reference compound, or water (control) were incubated for 20 min at 22°C with 20 ng human PRMT1 enzyme, 700 nM [^3H]SAM and 50 nM Histone H4 full length in a buffer containing 45 mM Tris-HCl (pH 8), 4.5 mM MgCl2, 45 mM NaCl and 3.6 mM DTT.
(§2) For control basal measurements, the enzyme is omitted from the reaction mixture. Following incubation, the reaction is stopped by adding 33 mM citric acid and the samples are filtered rapidly under vacuum through glass fiber filters (GF/B, Packard) presoaked with 33 mM citric acid and rinsed several times with ice-cold 33 mM citric acid using a 96-sample cell harvester (Unifilter, Packard). The filters are dried then counted for radioactivity in a scintillation counter (Topcount, Packard) using a scintillation cocktail (Microscint 0, Packard).
The results are expressed as a percent inhibition of the control enzyme activity. The standard reference compound is SAH, which is tested in each experiment at several concentrations to obtain a competition curve from which its IC50 is calculated (Cheng et al., 2004, J. Biol. Chem. 279:23892).

The target in another test is human PRMT6 enzyme (Homo sapiens, UniProt Q96LA8). The test is described as follows: PRMT6 inhibition assay (radioactive [3H]SAM methyl transfer, filter binding). The note with it: 120 nM [3H]SAM, 25 nM Histone H3 full length, 120 min at 22°C; for inhibition at 10 µM: compound at 10µM, read-out: PRMT6 10µM, percent inhibition of the control enzyme activity; for inhibition at 100 µM: read-out: PRMT6 100µM, percent inhibition of the control enzyme activity. As for the experimental part: as §1
The test compound, reference compound, or water (control) were incubated for 120 min at 22°C with 10 ng human PRMT6 enzyme, 120 nM [^3H]SAM and 25 nM Histone H3 full length in a buffer containing 45 mM Tris-HCl (pH 8), 45 mM NaCl, 4.5 mM MgCl2 and 3.6 mM DTT.
as §2
The results are expressed as a percent inhibition of the control enzyme activity. The standard reference compound is SAH, which is tested in each experiment at several concentrations to obtain a competition curve from which its IC50 is calculated. (lberg et al., 2007, J. Biol. Chem., 283: 3006).

The next test addresses T1, human PRMT7 enzyme (Homo sapiens, UniProt Q9NVM4).
T1 sequence (Q9NVM4 1-692): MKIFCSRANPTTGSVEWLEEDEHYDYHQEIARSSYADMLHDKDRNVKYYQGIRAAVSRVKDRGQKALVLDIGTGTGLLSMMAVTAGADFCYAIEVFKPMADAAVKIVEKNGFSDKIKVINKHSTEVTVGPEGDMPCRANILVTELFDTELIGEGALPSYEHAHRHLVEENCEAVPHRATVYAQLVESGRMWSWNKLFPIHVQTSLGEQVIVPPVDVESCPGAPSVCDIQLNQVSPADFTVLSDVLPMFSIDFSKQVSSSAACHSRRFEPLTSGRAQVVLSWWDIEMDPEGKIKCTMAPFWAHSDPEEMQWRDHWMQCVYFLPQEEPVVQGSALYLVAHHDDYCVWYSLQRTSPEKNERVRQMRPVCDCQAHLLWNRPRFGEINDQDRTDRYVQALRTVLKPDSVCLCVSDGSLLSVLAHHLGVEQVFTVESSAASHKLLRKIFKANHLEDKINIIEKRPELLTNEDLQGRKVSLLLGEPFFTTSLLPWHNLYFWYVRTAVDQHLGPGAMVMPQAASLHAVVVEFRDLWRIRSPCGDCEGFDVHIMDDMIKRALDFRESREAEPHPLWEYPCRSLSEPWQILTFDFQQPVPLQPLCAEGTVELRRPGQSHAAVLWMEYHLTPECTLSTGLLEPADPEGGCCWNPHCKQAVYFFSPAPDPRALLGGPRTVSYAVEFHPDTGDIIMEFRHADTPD
The test is described as follows: PRMT7 inhibition assay (radioactive [3H]SAM methyl transfer, filter binding). The note with it: 250 nM [3H]SAM, 4 nM Histone H2B (21-41) biotin labelled, 90 min at 22°C; for inhibition at 100 µM: read-out: PRMT7 100µM, percent inhibition of the control enzyme activity; for inhibition at 10 µM: read-out: PRMT7 10µM, percent inhibition of the control enzyme activity. How it is done:
as §1
The test compound, reference compound, or water (control) were incubated for 90 min at 22°C with 12.5 ng human PRMT7 enzyme, 250 nM [^3H]SAM and 4 nM Histone H2B (21-41) biotin labelled in a buffer containing 45 mM Tris-HCl (pH 8.7), 0.0045% Tween20, 0.009% HSA and 0.9 mM DTT.
as §2
The results are expressed as a percent inhibition of the control enzyme activity. The standard reference compound is SAH, which is tested in each experiment at several concentrations to obtain a competition curve from which its IC50 is calculated (Zurita-Lopez et al., 2012, J. Biol. Chem., 287(11):7859).

A further test addresses T2, human PRMT4 enzyme (Homo sapiens, UniProt Q86X55).
T2 sequence (Q86X55 1-608): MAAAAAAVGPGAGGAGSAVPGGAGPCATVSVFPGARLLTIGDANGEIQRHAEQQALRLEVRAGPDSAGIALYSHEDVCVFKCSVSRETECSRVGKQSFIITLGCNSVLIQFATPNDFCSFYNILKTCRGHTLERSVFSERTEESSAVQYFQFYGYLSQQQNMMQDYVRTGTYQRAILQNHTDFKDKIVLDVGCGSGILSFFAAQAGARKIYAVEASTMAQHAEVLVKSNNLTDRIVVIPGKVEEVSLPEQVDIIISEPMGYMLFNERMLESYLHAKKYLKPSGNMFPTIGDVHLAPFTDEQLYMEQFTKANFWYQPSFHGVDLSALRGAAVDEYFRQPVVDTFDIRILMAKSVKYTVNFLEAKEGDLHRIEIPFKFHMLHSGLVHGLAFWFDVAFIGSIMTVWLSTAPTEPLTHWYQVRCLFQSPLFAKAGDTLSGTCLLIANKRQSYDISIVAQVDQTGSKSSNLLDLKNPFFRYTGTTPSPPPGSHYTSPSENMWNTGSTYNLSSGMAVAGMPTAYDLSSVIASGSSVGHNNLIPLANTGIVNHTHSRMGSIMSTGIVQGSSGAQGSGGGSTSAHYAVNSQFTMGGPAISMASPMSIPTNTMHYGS
The test is described as follows: PRMT4 inhibition assay (radioactive [3H]SAM methyl transfer, filter binding). The note with it: 60 nM [3H]SAM, 25 nM Histone H3 full length, 1 h at 22°C; for IC50: read-out: PRMT4/CARM1 IC50; for inhibition at 100 µM: read-out: PRMT4/CARM1 100µM, percent inhibition of the control enzyme activity; for inhibition at 10 µM: read-out: PRMT4/CARM1 10µM, percent inhibition of the control enzyme activity. How it is done: as §1
The test compound, reference compound, or water (control) were incubated for 1 h at 22°C with 2.5 ng human PRMT4 enzyme, 60 nM [^3H]SAM and 25 nM Histone H3 full length in a buffer containing 45 mM Tris-HCl (pH 8), 45 mM NaCl, 4.5 mM MgCl2 and 3.6 mM DTT.
as §2
The results are expressed as a percent inhibition of the control enzyme activity. The standard reference compound is SAH, which is tested in each experiment at several concentrations to obtain a competition curve from which its IC50 is calculated (Selvi et al., 2010, J. Biol. Chem., 285: 7143).

Sequence of human PRMT1 enzyme (Q99873 whole entry): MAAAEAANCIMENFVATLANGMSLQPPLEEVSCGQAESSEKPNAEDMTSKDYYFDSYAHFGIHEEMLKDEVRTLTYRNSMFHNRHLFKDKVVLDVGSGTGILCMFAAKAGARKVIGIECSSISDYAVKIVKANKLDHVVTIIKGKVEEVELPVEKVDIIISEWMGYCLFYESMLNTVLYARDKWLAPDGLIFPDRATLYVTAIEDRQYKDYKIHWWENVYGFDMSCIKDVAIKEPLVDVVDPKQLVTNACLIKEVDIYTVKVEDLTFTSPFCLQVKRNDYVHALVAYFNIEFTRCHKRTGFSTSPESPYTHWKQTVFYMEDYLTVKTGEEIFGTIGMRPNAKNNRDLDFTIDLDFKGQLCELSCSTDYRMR
Sequence of human PRMT6 enzyme (Q96LA8 whole entry): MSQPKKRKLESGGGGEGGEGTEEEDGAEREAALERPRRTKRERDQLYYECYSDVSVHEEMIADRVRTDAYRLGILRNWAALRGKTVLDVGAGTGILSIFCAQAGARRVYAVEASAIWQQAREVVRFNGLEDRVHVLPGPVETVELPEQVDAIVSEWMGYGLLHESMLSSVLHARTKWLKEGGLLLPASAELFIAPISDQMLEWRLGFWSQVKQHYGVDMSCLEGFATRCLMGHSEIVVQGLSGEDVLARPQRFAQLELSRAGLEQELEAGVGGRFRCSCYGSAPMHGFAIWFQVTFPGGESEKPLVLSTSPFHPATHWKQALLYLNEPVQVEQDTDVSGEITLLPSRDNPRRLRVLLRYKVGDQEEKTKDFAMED

As to “1-(methoxymethyl)-5-(N-(5'-deoxyadenosin-5'-yl)aminomethyl)cytosine”, the “PRMT1 100µM, percent inhibition of the control enzyme activity” value on human PRMT1 enzyme is 13%. In addition, the “PRMT6 100µM, percent inhibition of the control enzyme activity” value on human PRMT6 enzyme (compound at 100µM) was found to be 20%. Also, at human PRMT7 enzyme (compound at 10µM), the “PRMT7 10µM, percent inhibition of the control enzyme activity” value was found to be 33%. For the same compound, at human PRMT7 enzyme (compound at 100µM), the “PRMT7 100µM, percent inhibition of the control enzyme activity” value was found to be 89%. Further, at human PRMT4 enzyme, the IC50 turned out to be 1.9 µM. Besides, at human PRMT4 enzyme (compound at 10µM), the “PRMT4/CARM1 10µM, percent inhibition of the control enzyme activity” value is listed as 81%. In addition, at human PRMT4 enzyme (compound at 100µM), the “PRMT4/CARM1 100µM, percent inhibition of the control enzyme activity” value worked out at 99%.

In the case of `COCn1cc(CNC[C@H]2O[C@@H](n3cnc4c(N)ncnc43)[C@H](O)[C@@H]2O)c(N)nc1=O` [Compound A, 1-(methoxymethyl)-5-(N-(5'-deoxyadenosin-5'-yl)aminomethyl)cytosine 5'-deoxy-5'-((1-(methoxymethyl)cytosin-5-yl)methylamino)adenosine], the inhibition at 100 µM worked out at 12% on human PRMT7 enzyme (compound at 100µM) and 21% on human PRMT4 enzyme (compound at 100µM).

For `COCn1cc(CN(CCC(N)C(=O)O)CC2OC(n3cnc4c(N)ncnc43)C(O)C2O)c(N)nc1=O` (centres unmarked) [Compound B], the inhibition at 100 µM at human PRMT1 enzyme is 24%; at human PRMT6 enzyme (compound at 100µM), 61%; at human PRMT7 enzyme (compound at 100µM) it was 81%; on human PRMT4 enzyme (compound at 100µM), 59%. Further, the inhibition at 10 µM at human PRMT6 enzyme was 3%; at human PRMT7 enzyme (compound at 10µM) it was 30%; on human PRMT4 enzyme (compound at 10µM) it was 21%.

On to `COCn1cc(CN(CCC(N)C(=O)O)CCC2OC(n3cnc4c(N)ncnc43)C(O)C2O)c(N)nc1=O` (centres unmarked) [D], for which the inhibition at 100 µM turned out to be 42% at human PRMT1 enzyme, 47% at human PRMT6 enzyme (compound at 100µM), 83% at human PRMT7 enzyme (compound at 100µM) and 88% at human PRMT4 enzyme (compound at 100µM). Besides, the inhibition at 10 µM on human PRMT6 enzyme stood at 8%; at human PRMT7 enzyme (compound at 10µM) it was 46%; at human PRMT4 enzyme (compound at 10µM), 54%. For the same compound, the IC50 at human PRMT4 enzyme is 14 µM.

On to `Nc1nc(=O)n(CCOc2ccccc2)cc1CNCCC1OC(n2cnc3c(N)ncnc32)C(O)C1O` (centres unmarked) [E, 5'-deoxy-5'-(N-((1-(2-(4-phenoxy)ethyl)-cytosin-5-yl)methyl)-aminomethyl) adenosine], for which, on human PRMT4 enzyme (compound at 10µM), the inhibition at 10 µM stood at 35%.

`Nc1nc(=O)n(CCOc2ccc(Br)cc2)cc1CNCC[C@H]1O[C@@H](n2cnc3c(N)ncnc32)[C@H](O)[C@@H]1O` [F, 5'-deoxy-5'-(N-((1-(2-(4-bromophenoxy)ethyl)-cytosin-5-yl)methyl)-aminomethyl) adenosine]: the inhibition at 10 µM on human PRMT4 enzyme (compound at 10µM) turned out to be 43%.
